Measured values from US12624034B2, “Non-covalent modifiers of AKT1 and uses thereof” (Terremoto Biosciences, Inc., priority 2023, dated 2026).
Like-named read-outs stand apart in the source and are kept apart here.

Key:
[1] = target: T1, AKT1 WT (Homo sapiens, UniProt P31749); assay: Live cell AKT1 WT target engagement by NanoBRET competitive probe displacement in HEK293 cells; assay type: binding; settings: 2 h at 37° C.
T1 construct: expressed in transfected cells; host or cells: HEK293

[2] = target: T2, AKT2 (Homo sapiens, UniProt P31751); assay: Live cell AKT2 target engagement by NanoBRET competitive probe displacement in HEK293 cells; assay type: binding; settings: 2 h at 37° C., read-out: AKT2 IC50
T2 construct: expressed in transfected cells; host or cells: HEK293

[3] = NanoBRET live cell target engagement, HEK293 cells, read-out: AKT1 WT IC50
[4] = NanoBRET live cell target engagement, HEK293 cells
[5] = NanoBRET competitive probe displacement, live HEK293 cells, read-out: AKT1 WT IC50
[6] = NanoBRET competitive probe displacement, live HEK293 cells

T1 sequence (P31749 whole entry): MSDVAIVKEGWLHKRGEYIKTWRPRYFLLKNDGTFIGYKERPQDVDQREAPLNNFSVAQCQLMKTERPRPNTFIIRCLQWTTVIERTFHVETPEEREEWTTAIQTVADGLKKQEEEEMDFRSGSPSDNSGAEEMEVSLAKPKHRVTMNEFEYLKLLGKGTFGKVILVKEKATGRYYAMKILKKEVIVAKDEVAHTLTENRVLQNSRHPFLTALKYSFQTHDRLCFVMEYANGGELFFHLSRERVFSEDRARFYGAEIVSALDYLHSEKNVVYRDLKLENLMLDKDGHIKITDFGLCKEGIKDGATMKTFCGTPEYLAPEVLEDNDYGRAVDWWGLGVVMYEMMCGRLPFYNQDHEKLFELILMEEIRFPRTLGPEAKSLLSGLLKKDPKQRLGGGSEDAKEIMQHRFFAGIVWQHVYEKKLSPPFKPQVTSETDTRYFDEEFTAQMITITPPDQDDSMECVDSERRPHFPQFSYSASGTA
T2 sequence (P31751 whole entry): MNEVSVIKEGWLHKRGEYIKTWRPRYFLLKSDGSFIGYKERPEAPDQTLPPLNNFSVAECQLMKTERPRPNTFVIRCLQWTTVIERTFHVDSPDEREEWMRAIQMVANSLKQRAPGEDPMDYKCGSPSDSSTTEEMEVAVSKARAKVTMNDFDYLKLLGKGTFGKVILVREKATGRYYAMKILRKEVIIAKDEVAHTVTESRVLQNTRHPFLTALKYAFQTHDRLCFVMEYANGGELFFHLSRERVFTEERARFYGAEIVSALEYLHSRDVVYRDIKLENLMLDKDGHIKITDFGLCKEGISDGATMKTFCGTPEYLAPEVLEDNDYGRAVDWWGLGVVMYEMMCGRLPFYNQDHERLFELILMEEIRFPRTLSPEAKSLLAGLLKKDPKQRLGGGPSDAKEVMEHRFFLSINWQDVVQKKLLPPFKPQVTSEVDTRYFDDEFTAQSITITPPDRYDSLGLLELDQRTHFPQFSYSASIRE

| Compound | IC50 [1, 3] [nM] | IC50 [2, 4] [nM] | IC50 [1, 5] [nM] | IC50 [2, 6] [nM] | IC50 ([1]; AKT1 WT IC50 (nM), NanoBRET live cell target engagement, HEK293 cells) [nM] |
| --- | --- | --- | --- | --- | --- |
| Cc1nccnc1C(=O)N[C@H]1CCc2cc(-n3c(-c4cccnc4N)nc4ccc(-c5ccn(C(F)F)n5)nc43)ccc21 [Compound 301] | 189 | 2050 | – | – | – |
| N#Cc1cc(C(=O)N[C@H]2CCc3cc(-n4c(-c5cccnc5N)nc5ccc(-n6cccn6)nc54)ccc32)ccc1O [Compound 259] | 204 | 1210 | – | – | – |
| Nc1ncccc1-c1nc2ccc(-n3nccn3)nc2n1-c1ccc2c(c1)CC[C@@H]2NC(=O)c1cnns1 [Compound 436] | – | – | 40 | 4660 | – |
| Nc1ncccc1-c1nc2ccc(-n3cccn3)nc2n1-c1ccc2c(c1)CC[C@@H]2NC1CCc2cc(O)ccc21 (single isomer, unassigned) [Compound 499] | – | – | 45.6 | 897 | – |
| Cc1nccnc1C(=O)N[C@H]1CCc2cc(-n3c(-c4cccnc4N)nc4ccc(-c5cccc(N6CCN(C)CC6)c5)nc43)ccc21 [Compound 269] | 3.21 | 9.39 | – | – | – |
| Nc1ncccc1-c1nc2ccc(-n3nccn3)nc2n1-c1ccc2c(c1)CC[C@@H]2NC(=O)c1ccc(CO)nc1 [Compound 490] | – | – | 74.3 | 3200 | – |
| Nc1ncccc1-c1nc2ccc(-n3cccn3)nc2n1-c1ccc2c(c1)CC[C@@H]2NC(=O)CC1CCC(=O)N1 (stereo partly drawn) [Compound 47, N—((S)-5-(2-(2-aminopyridin-3-yl)-5-(1H-pyrazol-1-yl)-3H-imidazo[4,5-b]pyridin-3-yl)-2,3-dihydro-1H-inden-1-yl)-2-(5-oxopyrrolidin-2-yl)acetamide] | > 1000 | > 10000 | – | – | – |
| Nc1ncccc1-c1nc2ccc(-n3ccc(OC4CC4)n3)nc2n1-c1ccc2c(c1)CC[C@@H]2NC1CCN(C(=O)C2CC2)CC1 [Compound 497] | – | – | 18.9 | 1280 | – |
| Nc1ncccc1-c1nc2ccc(-n3nccn3)nc2n1-c1ccc2c(c1)CC(F)[C@@H]2NC1CCN(C(=O)C2CC2)CC1 (stereo partly drawn) [Compound 532] | – | – | 177 | > 10000 | – |
| CC(=O)Nc1ccc(C(=O)N[C@H]2CCc3cc(-n4c(-c5cccnc5N)nc5ccc(-n6cccn6)nc54)ccc32)cc1F [Compound 309] | 10.8 | 8.38 | – | – | – |
| Nc1ncccc1-c1nc2ccc(-n3cccn3)nc2n1-c1ccc2c(c1)CC[C@@H]2NC(=O)c1cccnc1-n1cccn1 [Compound 90] | 228 | 5850 | – | – | – |
| Cc1cc(C(=O)N[C@H]2CCc3cc(-n4c(-c5cccnc5N)nc5ccc(-n6nccn6)nc54)ccc32)cnc1C(F)F [Compound 102] | 31.5 | 836 | – | – | – |
| Nc1ncccc1-c1nc2ccc(-n3cccn3)nc2n1-c1ccc2c(c1)CC[C@@H]2NC(=O)c1cccnc1CO [Compound 152, (S)—N-(5-(2-(2-aminopyridin-3-yl)-5-(1H-pyrazol-1-yl)-3H-imidazo[4,5-b]pyridin-3-yl)-2,3-dihydro-1H-inden-1-yl)-2-(hydroxymethyl)nicotinamide] | 61.7 | 984 | – | – | – |
| Nc1ncccc1-c1nc2ccc(C#CC3CC3)nc2n1-c1ccc2c(c1)CC[C@@H]2n1cnnc1 [Compound 528] | – | – | 17.2 | 320 | – |
| Cc1ccc2nc(-c3cccnc3N)n(-c3ccc4c(c3)CC[C@@H]4NC(=O)c3cccnc3C)c2n1 [Compound 145] | 170 | > 10000 | – | – | – |
| Nc1ncccc1-c1nc2ccc(-n3cccn3)nc2n1-c1ccc2c(c1)CC[C@@H]2NC1CCN(C(=O)C2CC2)CC1F (stereo partly drawn) [Compound 446] | – | – | 31.9 | 1330 | – |
| Cc1csc(-c2ccc3nc(-c4cccnc4N)n(-c4ccc5c(c4)CC[C@@H]5NC(=O)c4ccn(C)n4)c3n2)n1 [Compound 374, (S)—N-(5-(2-(2-aminopyridin-3-yl)-5-(4-methylthiazol-2-yl)-3H-imidazo[4,5-b]pyridin-3-yl)-2,3-dihydro-1H-inden-1-yl)-1-methyl-1H-pyrazole-3-carboxamide] | 27.8 | 389 | – | – | – |
| COc1ccn(-c2ccc3nc(-c4cccnc4N)n(-c4ccc5c(c4)CC[C@@H]5NC4CCN(C(=O)C5CC5)CC4F)c3n2)n1 (stereo partly drawn) [Compound 513] | – | – | 13.9 | 240 | – |
| Nc1ncccc1-c1nc2ccc(-n3cccn3)nc2n1-c1ccc2c(c1)CC[C@@H]2NC1CCN(C(=O)C2CC2)C1 (stereo partly drawn) [Compound 461] | – | – | 109 | 3030 | – |
| Fc1ccccc1-c1nc2ccc(-n3cccn3)nc2n1-c1ccc2c(c1)CC[C@@H]2n1cnnc1 [Compound 529] | – | – | 8.2 | 621 | – |
| COCc1cc(C(=O)N[C@H]2CCc3cc(-n4c(-c5cccnc5N)nc5ccc(-n6cccn6)nc54)ccc32)ccc1O [Compound 410, (S)—N-(5-(2-(2-aminopyridin-3-yl)-5-(1H-pyrazol-1-yl)-3H-imidazo[4,5-b]pyridin-3-yl)-2,3-dihydro-1H-inden-1-yl)-4-hydroxy-3-(methoxymethyl)benzamide] | – | – | 7.43 | 57.6 | – |
| Nc1ncccc1-c1nc2ccc(-n3ccc(Oc4ccncc4)n3)nc2n1-c1ccc2c(c1)CC[C@@H]2NC1CCN(C(=O)C2CC2)CC1 [Compound 575] | – | – | 221 | 3300 | – |
| CN1Cc2cc(C(=O)N[C@H]3CCc4cc(-n5c(-c6cccnc6N)nc6ccc(-n7cccn7)nc65)ccc43)cnc2C1 [Compound 112] | 9.53 | 52.7 | – | – | – |
| COc1cc(-n2cccn2)nc2c1nc(-c1cccnc1N)n2-c1ccc2c(c1)CC[C@@H]2NC(=O)c1ccc(C(F)F)nc1 [Compound 122, (S)—N-(5-(2-(2-aminopyridin-3-yl)-7-methoxy-5-(1H-pyrazol-1-yl)-3H-imidazo[4,5-b]pyridin-3-yl)-2,3-dihydro-1H-inden-1-yl)-6-(difluoromethyl)nicotinamide] | 10.6 | 34.6 | – | – | – |
| Cc1nnc(-c2ccc3nc(-c4cccnc4N)n(-c4ccc5c(c4)CC[C@@H]5NC4CCN(C(=O)C5CC5)CC4)c3n2)s1 [Compound 516] | – | – | 102 | 6240 | – |
| CN1CC(Oc2cc(C(=O)N[C@H]3CCc4cc(-n5c(-c6cccnc6N)nc6ccc(-n7cccn7)nc65)ccc43)ccn2)C1 [Compound 179] | 80 | 1270 | – | – | – |

Further lines, results first:

| IC50 [1, 3] [nM] | IC50 [2, 4] [nM] | IC50 [1, 5] [nM] | IC50 [2, 6] [nM] | IC50 ([1]; AKT1 WT IC50 (nM), NanoBRET live cell target engagement, HEK293 cells) [nM] | Compound |
| --- | --- | --- | --- | --- | --- |
| – | – | 58.9 | 1730 | – | Cn1nc(C(=O)N[C@H]2CCc3cc(-n4c(-c5cccnc5N)nc5ccc(-n6cccn6)nc54)ccc32)cc1F [Compound 428] |
| 119 | 6640 | – | – | – | CC(C)(O)c1cn([C@H]2CCc3cc(-n4c(-c5cccnc5N)nc5ccc(-n6cccn6)nc54)ccc32)nn1 [Compound 219] |
| – | – | 8.14 | 198 | – | Cc1cnsc1C(=O)N[C@H]1CCc2cc(-n3c(-c4cccnc4N)nc4ccc(-n5cccn5)nc43)ccc21 [Compound 451] |
| 65.8 | 2140 | – | – | – | Cc1ccc(S(=O)(=O)N[C@H]2CCc3cc(-n4c(-c5cccnc5N)nc5ccc(-n6cccn6)nc54)ccc32)cn1 [Compound 82] |
| 41.1 | 1010 | – | – | – | Cc1ccc(CN(C)[C@H]2CCc3cc(-n4c(-c5cccnc5N)nc5ccc(-n6cccn6)nc54)ccc32)cn1 [Compound 168] |
| 5.16 | 31.7 | – | – | – | Cc1cc(C(=O)N[C@H]2CCc3cc(-n4c(-c5cccnc5N)nc5ccc(-n6cccn6)nc54)ccc32)cnc1C [Compound 115] |
| 21.8 | 368 | – | – | – | Cc1nnn([C@H]2CCc3cc(-n4c(-c5cccnc5N)nc5ccc(-n6cccn6)nc54)ccc32)c1C [Compound 249, (S)-3-(3-(1-(4,5-dimethyl-1H-1,2,3-triazol-1-yl)-2,3-dihydro-1H-inden-5-yl)-5-(1H-pyrazol-1-yl)-3H-imidazo[4,5-b]pyridin-2-yl)pyridin-2-amine] |
| 20.4 | 363 | – | – | – | Cn1nc(C(=O)N[C@H]2CCc3cc(-n4c(-c5cccnc5N)nc5ccc(-n6cccn6)nc54)ccc32)c2cccnc21 [Compound 163] |
| 113 | 1960 | – | – | – | Nc1ncccc1-c1nc2ccc(-n3cccn3)nc2n1-c1ccc2c(c1)CC[C@@H]2NCc1ccc(C(F)F)nc1 [Compound 84] |
| 53.5 | 560 | – | – | – | Nc1ncccc1-c1nc2ccc(-n3cccn3)nc2n1-c1ccc2c(c1)CC[C@@H]2NC(=O)c1cnc2nccn2c1 [Compound 160] |
| 12.1 | 158 | – | – | – | Nc1ncccc1-c1nc2ccc(-n3cccn3)nc2n1-c1ccc2c(c1)CC[C@@H]2NC(=O)c1ccc2nccn2n1 [Compound 236] |
| 13.5 | 46.6 | – | – | – | CC(=O)Nc1ccc(C(=O)N[C@H]2CCc3cc(-n4c(-c5cccnc5N)nc5ccc(-n6cccn6)nc54)ccc32)cn1 [Compound 232] |
| 18.8 | 223 | – | – | – | Nc1ncccc1-c1nc2ccc(-n3cccn3)nc2n1-c1ccc2c(c1)CC[C@@H]2NC(=O)c1cccnc1Cl [Compound 108] |
| 363 | 5810 | – | – | – | CN1CC(c2cn([C@H]3CCc4cc(-n5c(-c6cccnc6N)nc6ccc(-n7cccn7)nc65)ccc43)nn2)C1 [Compound 251] |
| 28.4 | 260 | – | – | – | Cc1ncsc1C(=O)N[C@H]1CCc2cc(-n3c(-c4cccnc4N)nc4ccc(-n5cccn5)nc43)ccc21 [Compound 99] |
| 7.97 | 19.6 | – | – | – | COc1cc(C(=O)N[C@H]2CCc3cc(-n4c(-c5cccnc5N)nc5ccc(-n6cccn6)nc54)ccc32)cc(F)n1 [Compound 344] |
| – | 39.4 | – | – | 6.86 | Cc1cc(C(=O)N[C@H]2CCc3cc(-n4c(-c5cccnc5N)nc5ccc(-n6cccn6)nc54)ccc32)cc(C)n1 [Compound 76] |
| 10.6 | 83.1 | – | – | – | Nc1ncccc1-c1nc2ccc(-n3cccn3)nc2n1-c1ccc2c(c1)CC[C@@H]2n1cc(-c2cccnc2)nn1 [Compound 199] |
| 21.5 | 174 | – | – | – | Cc1cnc(C)c(C(=O)N[C@H]2CCc3cc(-n4c(-c5cccnc5N)nc5ccc(-n6cccn6)nc54)ccc32)c1 [Compound 137] |
